# Measured values taken from patent publication US20210052705A1, “METHOD OF DRUG […] FOR PTH, PTHrP AND RELATED PEPTIDES” (Radius Health, Inc., priority 2011, published 2021).
# Where two headings read alike, the source gives them in different places.
# What was measured:
# clinical = details: female, human, in vivo, LS Mean; for AUC(0-inf): AUC0-inf; for AUC(0-t): AUC0-t
# in vivo = details: male, Sprague Dawley, rat; for bioavailability: % F; for AUC(0-t): AUC0-t; for half-life: T1/2
# [1] = parameters: AUC5-90, Mean: unit not given beside the values; details: Sprague-Dawley, rat, in vivo, 13.6 ug
# [2] = female, human, in vivo
# [3] = 9.8 ug, Concentrations of Peptide in Serum
# [4] = 20 ug, Concentration of Peptide in Serum, Mean
# [5] = 22 ug, Concentration of Peptide in Serum, Mean
# [6] = 26.2 ug, Concentration of Peptide in Serum, Mean
# [7] = 26.2 ug, Concentrations of Peptide in Serum
# [8] = 27 ug, Concentration of Peptide in Serum, Mean
# [9] = 27 ug, Concentrations of Peptide in Serum
# [10] = 31 ug, Concentration of Peptide in Serum, Mean
# [11] = 32 ug, Concentration of Peptide in Serum, Mean
# [12] = 32 ug, Concentrations of Peptide in Serum
# [13] = 45.6 ug, Concentration of Peptide in Serum, Mean
# [14] = 54 ug, Concentrations of Peptide in Serum
# [15] = 57.7 ug, Concentration of Peptide in Serum, Mean
# [16] = 67.7 ug, Concentration of Peptide in Serum, Mean
# [17] = 141.9 ug, Concentration of Peptide in Serum, Mean
# [18] = 386.5 ug, Concentration of Peptide in Serum, Mean
smiles,measurement,setting,value
CC[C@H](C)[C@H](NC(=O)[C@H](CO)NC(=O)[C@H](CCCCN)NC(=O)CNC(=O)[C@H](CCCCN)NC(=O)[C@H](CC(=O)O)NC(=O)[C@H](Cc1cnc[nH]1)NC(=O)[C@H](CC(C)C)NC(=O)[C@H](CC(C)C)NC(=O)[C@H](CCC(N)=O)NC(=O)[C@H](Cc1cnc[nH]1)NC(=O)[C@H](CCC(=O)O)NC(=O)[C@H](CO)NC(=O)[C@@H](NC(=O)[C@H](C)N)C(C)C)C(=O)N[C@@H](CCC(N)=O)C(=O)N[C@@H](CC(=O)O)C(=O)N[C@@H](CC(C)C)C(=O)N[C@@H](CCCNC(=N)N)C(=O)N[C@@H](CCCNC(=N)N)C(=O)N[C@@H](CCCNC(=N)N)C(=O)N[C@@H](CCC(=O)O)C(=O)N[C@@H](CC(C)C)C(=O)N[C@@H](CC(C)C)C(=O)N[C@@H](CCC(=O)O)C(=O)N[C@@H](CCCCN)C(=O)N[C@@H](CC(C)C)C(=O)N[C@@H](CC(C)C)C(=O)NC(C)(C)C(=O)N[C@@H](CCCCN)C(=O)N[C@@H](CC(C)C)C(=O)N[C@@H](Cc1cnc[nH]1)C(=O)N[C@H](C(=O)N[C@@H](C)C(N)=O)[C@@H](C)O [Peptide],AUC(0-inf),clinical; 100 ug,0.0885 ng·h/mL
same,AUC(0-t),clinical; 100 ug,0.112 ng·h/mL
same,Cmax,clinical; 100 ug,0.366 ng/mL
same,AUC(0-inf),clinical; 150 ug,0.119 ng·h/mL
same,AUC(0-t),clinical; 150 ug,0.107 ng·h/mL
same,Cmax,clinical; 150 ug,0.315 ng/mL
same,AUC(0-inf),clinical; 200 ug,0.11 ng·h/mL
same,AUC(0-t),clinical; 200 ug,0.0975 ng·h/mL
same,Cmax,clinical; 200 ug,0.337 ng/mL
same,bioavailability,in vivo; 9.8 ug,49%
same,AUC(0-t),in vivo; 9.8 ug,5.72 ng·h/mL
same,Cmax,"in vivo; 9.8 ug, Cmax",12 ng/mL
same,level at 5 min,in vivo; [3],12 ng/mL
same,level at 0.25 h,in vivo; [3],9.65 ng/mL
same,level at 0.5 h,in vivo; [3],4.96 ng/mL
same,level at 0.75 h,in vivo; [3],2.07 ng/mL
same,level at 1 h,in vivo; [3],1.47 ng/mL
same,level at 1.5 h,in vivo; [3],0.62 ng/mL
same,level at 2 h,in vivo; [3],0.38 ng/mL
same,half-life,in vivo; 9.8 ug,22 min
same,Tmax,in vivo; 9.8 ug,5 min
same,bioavailability,in vivo; 20 ug,47%
same,AUC(0-t),in vivo; 20 ug,9.6 ng·h/mL
same,Cmax,"in vivo; 20 ug, Cmax",11.9 ng/mL
same,level at 5 min,in vivo; [4],9.34 ng/mL
same,level at 0.25 h,in vivo; [4],11.9 ng/mL
same,level at 0.5 h,in vivo; [4],6.4 ng/mL
same,level at 0.75 h,in vivo; [4],7.12 ng/mL
same,level at 1.5 h,in vivo; [4],3.14 ng/mL
same,half-life,in vivo; 20 ug,43 min
same,Tmax,in vivo; 20 ug,15 min
same,bioavailability,in vivo; 20 ug/kg,69%
same,AUC(0-t),in vivo; 20 ug/kg,2.77 ng·h/mL
same,Cmax,"in vivo; 20 ug/kg, Cmax",7.29 ng/mL
same,Cmax,"in vivo; 20 ug/kg, Cmax (20 μg/kg Dose)",7.29 ng/mL
same,half-life,in vivo; 20 ug/kg,18 min
same,Tmax,in vivo; 20 ug/kg,10 min
same,bioavailability,in vivo; 22 ug,36%
same,AUC(0-t),in vivo; 22 ug,7.75 ng·h/mL
same,Cmax,"in vivo; 22 ug, Cmax",17.1 ng/mL
same,level at 5 min,in vivo; [5],17.1 ng/mL
same,level at 0.25 h,in vivo; [5],13.2 ng/mL
same,level at 0.5 h,in vivo; [5],6.46 ng/mL
same,level at 0.75 h,in vivo; [5],3.35 ng/mL
same,level at 1.5 h,in vivo; [5],0.8 ng/mL
same,half-life,in vivo; 22 ug,19 min
same,Tmax,in vivo; 22 ug,5 min
same,bioavailability,in vivo; 26.2 ug,101%
same,AUC(0-t),in vivo; 26.2 ug,24.1 ng·h/mL
same,Cmax,"in vivo; 26.2 ug, Cmax",44 ng/mL
same,level at 5 min,in vivo; [6],34.6 ng/mL
same,level at 0.25 h,in vivo; [6],44 ng/mL
same,level at 0.5 h,in vivo; [6],17.3 ng/mL
same,level at 0.75 h,in vivo; [6],13.8 ng/mL
same,level at 1.5 h,in vivo; [6],2.22 ng/mL
same,level at 5 min,in vivo; [7],41.1 ng/mL
same,level at 10 min,in vivo; [7],26.7 ng/mL
same,level at 0.25 h,in vivo; [7],42.8 ng/mL
same,level at 0.5 h,in vivo; [7],17.4 ng/mL
same,level at 0.75 h,in vivo; [7],12.5 ng/mL
same,half-life,in vivo; 26.2 ug,18 min
same,Tmax,in vivo; 26.2 ug,15 min
same,AUC(0-t),in vivo; 27 ug,17 ng·h/mL
same,Cmax,"in vivo; 27 ug, Cmax",31 ng/mL
same,level at 5 min,in vivo; [8],32.6 ng/mL
same,level at 0.25 h,in vivo; [8],31 ng/mL
same,level at 0.5 h,in vivo; [8],18.1 ng/mL
same,level at 5 min,"in vivo; 27 ug, Concentration of Peptide in Serum, individual rat",28.2 ng/mL
same,level at 5 min,in vivo; [9],27.4 ng/mL
same,level at 0.25 h,in vivo; [9],29.7 ng/mL
same,level at 0.5 h,in vivo; [9],12.2 ng/mL
same,level at 0.75 h,in vivo; [9],9.1 ng/mL
same,half-life,in vivo; 27 ug,20 min
same,Tmax,in vivo; 27 ug,15 min
same,bioavailability,in vivo; 31 ug,42%
same,AUC(0-t),in vivo; 31 ug,12.5 ng·h/mL
same,Cmax,"in vivo; 31 ug, Cmax",23.6 ng/mL
same,level at 5 min,in vivo; [10],20.3 ng/mL
same,level at 0.25 h,in vivo; [10],23.6 ng/mL
same,level at 0.5 h,in vivo; [10],12.5 ng/mL
same,level at 0.75 h,in vivo; [10],4.73 ng/mL
same,level at 1.5 h,in vivo; [10],1.04 ng/mL
same,half-life,in vivo; 31 ug,17 min
same,Tmax,in vivo; 31 ug,15 min
same,bioavailability,in vivo; 32 ug,102%
same,AUC(0-t),in vivo; 32 ug,27.4 ng·h/mL
same,Cmax,"in vivo; 32 ug, Cmax",49.2 ng/mL
same,level at 5 min,in vivo; [11],45.2 ng/mL
same,level at 0.25 h,in vivo; [11],49.2 ng/mL
same,level at 0.5 h,in vivo; [11],18.9 ng/mL
same,level at 0.75 h,in vivo; [11],13.6 ng/mL
same,level at 1.5 h,in vivo; [11],5.03 ng/mL
same,level at 5 min,in vivo; [12],25.1 ng/mL
same,level at 10 min,in vivo; [12],34.4 ng/mL
same,level at 0.25 h,in vivo; [12],34 ng/mL
same,level at 0.5 h,in vivo; [12],17.8 ng/mL
same,level at 0.75 h,in vivo; [12],12.7 ng/mL
same,half-life,in vivo; 32 ug,25 min
same,Tmax,in vivo; 32 ug,15 min
same,bioavailability,in vivo; 45.6 ug,108%
same,AUC(0-t),in vivo; 45.6 ug,48.7 ng·h/mL
same,Cmax,"in vivo; 45.6 ug, Cmax",88.2 ng/mL
same,level at 5 min,in vivo; [13],88.2 ng/mL
same,level at 0.25 h,in vivo; [13],76.1 ng/mL
same,level at 0.5 h,in vivo; [13],36.1 ng/mL
same,level at 0.75 h,in vivo; [13],29.3 ng/mL
same,level at 1.5 h,in vivo; [13],4.79 ng/mL
same,half-life,in vivo; 45.6 ug,20 min
same,Tmax,in vivo; 45.6 ug,5 min
same,bioavailability,in vivo; 54 ug,37%
same,AUC(0-t),in vivo; 54 ug,23 ng·h/mL
same,Cmax,"in vivo; 54 ug, Cmax",49.8 ng/mL
same,level at 5 min,in vivo; [14],16.5 ng/mL
same,level at 0.25 h,in vivo; [14],49.8 ng/mL
same,level at 0.5 h,in vivo; [14],17.1 ng/mL
same,level at 0.75 h,in vivo; [14],9.37 ng/mL
same,level at 1 h,in vivo; [14],7.75 ng/mL
same,half-life,in vivo; 54 ug,24 min
same,Tmax,in vivo; 54 ug,15 min
same,bioavailability,in vivo; 57.7 ug,82%
same,AUC(0-t),in vivo; 57.7 ug,41.8 ng·h/mL
same,Cmax,"in vivo; 57.7 ug, Cmax",60.8 ng/mL
same,level at 5 min,in vivo; [15],43.1 ng/mL
same,level at 0.25 h,in vivo; [15],60.8 ng/mL
same,level at 0.5 h,in vivo; [15],40.1 ng/mL
same,level at 0.75 h,in vivo; [15],28.1 ng/mL
same,level at 1.5 h,in vivo; [15],3.72 ng/mL
same,half-life,in vivo; 57.7 ug,18 min
same,Tmax,in vivo; 57.7 ug,15 min
same,bioavailability,in vivo; 67.7 ug,74%
same,AUC(0-t),in vivo; 67.7 ug,48.2 ng·h/mL
same,Cmax,"in vivo; 67.7 ug, Cmax",82.7 ng/mL
same,level at 5 min,in vivo; [16],64.9 ng/mL
same,level at 0.25 h,in vivo; [16],82.7 ng/mL
same,level at 0.5 h,in vivo; [16],51.3 ng/mL
same,level at 0.75 h,in vivo; [16],19.7 ng/mL
same,level at 1.5 h,in vivo; [16],7.6 ng/mL
same,half-life,in vivo; 67.7 ug,22 min
same,Tmax,in vivo; 67.7 ug,15 min
same,AUC(0-t),in vivo; 141.9 ug,173 ng·h/mL
same,Cmax,"in vivo; 141.9 ug, Cmax",230 ng/mL
same,level at 5 min,in vivo; [17],186 ng/mL
same,level at 0.25 h,in vivo; [17],230 ng/mL
same,level at 0.5 h,in vivo; [17],219 ng/mL
same,level at 0.75 h,in vivo; [17],91.8 ng/mL
same,level at 1.5 h,in vivo; [17],23.7 ng/mL
same,half-life,in vivo; 141.9 ug,21 min
same,Tmax,in vivo; 141.9 ug,15 min
same,bioavailability,in vivo; 386.5 ug,22%
same,AUC(0-t),in vivo; 386.5 ug,75.5 ng·h/mL
same,Cmax,"in vivo; 386.5 ug, Cmax",118 ng/mL
same,level at 5 min,in vivo; [18],97.5 ng/mL
same,level at 0.25 h,in vivo; [18],133 ng/mL
same,level at 0.5 h,in vivo; [18],75.4 ng/mL
same,level at 0.75 h,in vivo; [18],42.2 ng/mL
same,level at 1.5 h,in vivo; [18],7.53 ng/mL
same,half-life,in vivo; 386.5 ug,18 min
same,Tmax,in vivo; 386.5 ug,15 min
same,"AUC5-90, Mean",[1],282
same,"Cmax, Mean",[1],12.3 ng/mL
same,"Tmax, Mean",[1],9 min
same,"Concentration in Serum at 5 min, Mean",[1]; 5 min,11.8 ng/mL
same,"Concentration in Serum at 15 min, Mean",[1]; 0.25 h,10.5 ng/mL
same,"Concentration in Serum at 30 min, Mean",[1]; 0.5 h,7.1 ng/mL
same,"AUC0-inf, LS Mean",[2]; 150 ug,157.42 pg·h/mL
same,"AUC0-t, LS Mean",[2]; 150 ug,142.85 pg·h/mL
same,"Cmax, LS Mean",[2]; 150 ug,311.97 pg/mL
same,"AUC0-inf, LS Mean",[2]; 200 ug,190.16 pg·h/mL
same,"AUC0-t, LS Mean",[2]; 200 ug,166.79 pg·h/mL
same,"Cmax, LS Mean",[2]; 200 ug,489.45 pg/mL
